Data on three compounds can be found in patent US8278453B2, “Quinolizidinone M1 receptor positive allosteric modulators” (Merck Sharp & Dohme Corp., priority 2008, dated 2012).

In this assay the target is T1, acetylcholine muscarinic M1 receptor (Homo sapiens, UniProt P11229).
T1 construct: expressed in transfected cells; host or cells: CHOnfat (CHO cells expressing NFAT), line CHOnfat/hM1
T1 sequence (P11229 1-460): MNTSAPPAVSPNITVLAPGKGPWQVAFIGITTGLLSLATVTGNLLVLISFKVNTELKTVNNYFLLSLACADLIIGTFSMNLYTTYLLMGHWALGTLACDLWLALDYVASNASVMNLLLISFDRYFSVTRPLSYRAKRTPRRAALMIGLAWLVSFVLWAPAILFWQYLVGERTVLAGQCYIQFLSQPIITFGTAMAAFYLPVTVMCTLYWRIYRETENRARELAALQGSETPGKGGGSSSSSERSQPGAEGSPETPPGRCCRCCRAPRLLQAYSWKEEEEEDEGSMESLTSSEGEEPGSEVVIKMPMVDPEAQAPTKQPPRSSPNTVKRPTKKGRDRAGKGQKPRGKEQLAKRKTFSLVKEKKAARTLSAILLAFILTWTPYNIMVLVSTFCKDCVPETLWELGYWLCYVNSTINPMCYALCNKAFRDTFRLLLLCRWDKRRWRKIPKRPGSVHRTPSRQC
The experiment in a line: muscarinic M1 FLIPR intracellular calcium assay (positive allosteric modulation, EC20 acetylcholine). In kind it is cell-based. The following applies: inflection point from FLIPR values; CHOnfat/hM1 cells; 4 min preincubation, then EC20 acetylcholine (3 nM final); read-out: IP Value. How it is done: The assay studies the effect of one or several concentrations of test compounds on basal or acetylcholine-stimulated Ca^2+ levels using FLIPR.
Compounds are prepared and subjected to a preincubation period of 4 min. Thereafter, a single EC20 concentration of acetylcholine is added to each well (3 nM final). The intracellular Ca^2+ level of each sample is measured and compared to an acetylcholine control to determine any modulatory activity.
Cells: CHOnfat/hM1, hM2, hM3 or hM4 cells are plated 24 hr before the assay at a density of 18,000 cells/well (100 μL) in a 384 well plate. CHOnfat/hM1 and CHOnfat/hM3 Growth Medium: 90% DMEM (Hi Glucose); 10% HI FBS; 2 mM L-glutamine; 0.1 mM NEAA; Pen-Strep; and 1 mg/ml Geneticin, are added. For M2Gqi5CHOnfat and M4Gqi5CHOnfat cells, an additional 600 μg/ml hygromycin is added.
Equipment: 384 well plate, 120 μL addition plate; 96-well Whatman 2 ml Uniplate Incubator, 37° C., 5% CO2; Skatron EMBLA-384 Plate Washer; Multimek Pipetting System; Genesis Freedom 200 System; Mosquito System; Temo Nanolitre Pipetting System; and FLIPR^384 Fluorometric Imaging Plate Reader System are used.
Buffers. Assay Buffer: Hanks Balanced Salt Solution, with 20 mM Hepes, 2.5 mM Probenecid (Sigma P-8761) first dissolved in 1N aqueous NaOH, 1% Bovine Serum Albumin (Sigma A-9647). Dye Loading Buffer: Assay Buffer plus 1% Fetal Bovine Serum and Fluo-4AM/Pluronic Acid Mixture. 2 mM Fluo-4AM ester stock in DMSO (Molecular Probes F-14202) Concentration of 2 μM in buffer for a final concentration of 1 μM in Assay. 20% Pluronic Acid Solution stock, with a concentration of 0.04% in Buffer, 0.02% in Assay.
65 μl of 2 mM Fluo-4AM are mixed with 130 μL of 20% Pluronic Acid. The resulting solution and 650 μL FBS is added to the assay buffer for a total volume of 65 mL. Positive Controls: 4-Br-A23187: 10 mM in DMSO; final concentration 10 μM. […]
After 60 min, the cells are washed three times with 100 μL of buffer, leaving 30 μL of buffer in each well. […] A signal test to check background fluorescence and basal fluorescence signal is performed. […]
On the technique in general: A change in cytosolic calcium serves as a functional read-out for many receptors and channels.

Turning to `O=C(O)c1cc(Cc2ccc(Cl)cc2)c2ccccn2c1=O` [Example 3, 1-(4-Chlorobenzyl)-4-oxo-4H-quinolizine-3-carboxylic acid], the EC50 was determined as 201 nM.

In the case of `Cn1cc(-c2ccc(Cc3cc(C(=O)O)c(=O)n4ccccc34)nc2)cn1` [Example 5, 1-{[5-(1-Methyl-1H-pyrazol-4-yl)pyridin-2-yl]methyl}-4-oxo-4H-quinolizine-3-carboxylic acid], the EC50 stood at 213 nM.

`O=C(O)c1cc(Cc2ccc(-c3ccccc3)cc2)c2ccccn2c1=O` [Example 4, 1-(Biphenyl-4-ylmethyl)-4-oxo-4H-quinolizine-3-carboxylic acid]: the EC50 came to 110 nM.
